Reference: patent publication US20240239799A1, “(S)-1-(5-((PYRIDIN-3-YL)THIO)PYRAZIN-2-YL)-4'H,6'H-SPIRO[PIPERIDINE-4,5'-PYRROLO [1,2-B]PYRAZOL]-4'-AMINE DERIVATIVES AND SIMILAR COMPOUNDS AS SHP2 INHIBITORS FOR THE TREATMENT OF E.G. CANCER” (C.N.C.C.S. S.C.A.R.L. COLLEZIONE NAZIONALE DEI COMPOSTI …, priority 2021, published 2024)
Where two headings read alike, the source gives them in different places.

Columns and labels:
[1] = target: T1, SHP-2 enzyme (Met1-Leu525) (Homo sapiens, UniProt Q06124); assay: SHP2 inhibition enzymatic assay (DiFMUP substrate, IRS1 peptide activation); type: biochemical; settings: 0.5 nM SHP-2, 500 nM IRS1 peptide, 75 μM DiFMUP; read-out: SHP2wt - IC50
T1 construct: synthetized by Origene, Met1-Leu525, cat #TP750155; purchased Origene TP750155
T1 sequence (Q06124 1-525): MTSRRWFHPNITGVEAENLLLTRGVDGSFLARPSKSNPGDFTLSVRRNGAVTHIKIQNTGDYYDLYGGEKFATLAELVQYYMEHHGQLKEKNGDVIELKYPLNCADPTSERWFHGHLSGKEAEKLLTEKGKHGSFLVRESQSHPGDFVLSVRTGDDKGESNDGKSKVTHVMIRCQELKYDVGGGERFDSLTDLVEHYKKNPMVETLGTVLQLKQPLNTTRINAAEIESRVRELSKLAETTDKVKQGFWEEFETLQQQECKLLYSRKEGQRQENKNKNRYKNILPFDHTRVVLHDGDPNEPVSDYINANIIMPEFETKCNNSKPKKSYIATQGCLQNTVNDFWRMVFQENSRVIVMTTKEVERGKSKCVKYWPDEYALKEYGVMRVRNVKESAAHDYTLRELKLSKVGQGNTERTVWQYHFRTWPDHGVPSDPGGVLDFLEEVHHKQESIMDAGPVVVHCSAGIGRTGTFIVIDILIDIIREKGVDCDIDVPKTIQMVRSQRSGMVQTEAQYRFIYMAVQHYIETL
Procedure: Assay volume of 20 μL/well was assembled in 384 well black polystyrene low-binding microplates (Greiner), using the following buffer: 60 mM HEPES pH 7.2, 75 mM NaCl, 75 mM KCl, 1 mM EDTA pH 8, 0.05% tween-20, 5 mM DTT. The SHP-2 enzyme (synthetized by Origene, Met1-Leu525, cat #TP750155) was used at a final concentration of 0.5 nM.
Briefly, DMSO serially diluted testing compounds were transferred to the bottom of the assay plate. SHP2 was then added together with the IRS1 peptide 30 min post incubation, the DiFMUP substrate was added to the reaction and incubated 30 min at rt. […] The fluorescence was detected by a microplate reader (Envision, PerkinElmer) according to the DiFMUP excitation and emission wavelength. The lower the fluorescence the higher the SHP2 inhibition.
The percentage inhibition is fitted against the compound dilutions with a four-parameter logistic regression. The inflection point (i.e. the concentration at which half-maximal inhibition is achieved) is the IC50.

[2] = system: phospho-ERK1/2 (Thr202/Tyr204) in KYSE-520 cells; assay: Phospho-ERK cellular assay (TR-FRET); type: cell-based; settings: Homo sapiens, read-out: pERK IC50
Procedure: ERK phosphorylation was detected using the “Advanced phospho-ERK1/2 (Thr202/Tyr204)” TR-FRET kit (Cisbio, Cat #64AERPEG/H), following the manufacturer reagents and instructions.
Briefly, 20.000/well KYSE-520 cells (DSMZ ACC 371) were plated in 6 μL RPMI-1640 (Invitrogen) growth medium, into 384 white low-volume high base TC microplates (Greiner). After an overnight incubation, cells were treated with DMSO serial diluted compounds and incubated for 2 h at 37° C. After incubation, 2 μL/well of 4X Lysis Buffer (Cisbio 64KL1FDF), were added and incubated with cells for 30 min on gentle shaking. Finally, lysates were added with 2 μL/well of Eu cryptate (donor) and D2 (acceptor) conjugated antibodies (as provided by the Cisbio kit #64AERPEG/H) diluted 1:100 in Detection Buffer (as provided by the Cisbio kit #64AERPEG/H). Plates were then sealed and incubated at rt in the dark. After an overnight incubation, the TR-FRET signal was detected on a suitable reader (Envision, PerkinElmer). The lower the TR-FRET signal the higher the higher the SHP2 inhibition in cells.
The activity of each compound dilution was calculated as percentage between vehicle DMSO treated cells and no cells, 0% inhibition and 100% inhibition respectively. The percentage activity is fitted against the compound dilutions with a four-parameter logistic regression. The inflection point (i.e. the concentration at which half-maximal inhibition is achieved) is the IC50.

[3] = KYSE-520, 2 h, KYSE-520 cells, 2 h at 37° C.

`N[C@@H]1c2cnnn2CC12CCN(c1cnc3c(-c4cccc(Cl)c4Cl)n[nH]c3n1)CC2` [Example 41, (S)-1-(3-(2,3-dichlorophenyl)-1H-pyrazolo[3,4-b]pyrazin-6-yl)-4′H,6′H-spiro[piperidine-4,5′-pyrrolo[1,2-c][1,2,3]triazol]-4′-amine] was tested, and the IC50 [1] was no more than 50 nM and the IC50 [2, 3] was greater than 500 nM.
For `N[C@@H]1c2ccnn2CC12CCN(c1cnc(Sc3ccnc(-n4cccc4)c3Cl)cn1)CC2` [Example 62, (S)-1-(5-((3-chloro-2-(1H-pyrrol-1-yl)pyridin-4-yl)thio)pyrazin-2-yl)-4′H,6′H-spiro[piperidine-4,5′-pyrrolo[1,2-b]pyrazol]-4′-amine], the IC50 [1] was no more than 50 nM and the IC50 [2, 3] was less than 100 nM.
`N[C@@H]1c2ccnn2CC12CCN(c1cnc(SC3=C(Cl)C4=NC(=O)CN4C=C3)cn1)CC2` [Example 58, (S)-7-((5-(4′-amino-4′H,6′H-spiro[piperidine-4,5′-pyrrolo[1,2-b]pyrazol]-1-yl)pyrazin-2-yl)thio)-8-chloroimidazo[1,2-a]pyridin-2(3H)-one] gave an IC50 [1] of no more than 50 nM and an IC50 ([2]; KYSE-520 cells, 2 h at 37° C.) of 100 to 500 nM.
`N[C@@H]1c2cccn2CC12CCN(c1cnc(Sc3ccnc(-n4cccn4)c3Cl)cn1)CC2` [Example 82, (S)-1-(5-((3-chloro-2-(1H-pyrazol-1-yl)pyridin-4-yl)thio)pyrazin-2-yl)-1′H,3′H-spiro[piperidine-4,2′-pyrrolizin]-1′-amine] showed an IC50 [1] of no more than 50 nM and an IC50 [2, 3] of less than 100 nM.
`Nc1nc(N2CCC3(CC2)Cn2nccc2[C@H]3N)cnc1Sc1ccnc(N)c1Cl` [Example 4, (S)-1-(6-amino-5-((2-amino-3-chloropyridin-4-yl)thio)pyrazin-2-yl)-4′H,6′H-spiro[piperidine-4,5′-pyrrolo[1,2-b]pyrazol]-4′-amine] was tested, and the IC50 [1] was no more than 50 nM and the IC50 [2, 3] was less than 100 nM.
`Nc1nc(N2CCC3(CC2)Cn2nncc2[C@H]3N)cnc1Sc1cccnc1C(F)(F)F` [Example 36, (S)-1-(6-amino-5-((2-(trifluoromethyl)pyridin-3-yl)thio)pyrazin-2-yl)-4′H,6′H-spiro[piperidine-4,5′-pyrrolo[1,2-c][1,2,3]triazol]-4′-amine] showed an IC50 [1] of no more than 50 nM and an IC50 [2, 3] greater than 500 nM.
`NC(=O)c1cnn(-c2nccc(Sc3cnc(N4CCC5(CC4)Cn4nccc4[C@H]5N)cn3)c2Cl)c1` [Example 65, (S)-1-(4-((5-(4′-amino-4′H,6′H-spiro[piperidine-4,5′-pyrrolo[1,2-b]pyrazol]-1-yl)pyrazin-2-yl)thio)-3-chloropyridin-2-yl)-1H-pyrazole-4-carboxamide] showed an IC50 [1] of no more than 50 nM and an IC50 [2, 3] of less than 100 nM.
`Cc1nc(N2CCC3(CC2)Cn2nccc2[C@H]3N)c(CO)nc1Sc1ccnc(N)c1Cl` [Example 45, (S)-(6-((2-amino-3-chloropyridin-4-yl)thio)-3-(4′-amino-4′H,6′H-spiro[piperidine-4,5′-pyrrolo[1,2-b]pyrazol]-1-yl)-5-methylpyrazin-2-yl)methanol] showed an IC50 [1] of no more than 50 nM and an IC50 [2, 3] of less than 100 nM.
`N[C@@H]1c2ccnn2CC12CCN(c1cnc(Sc3ccnc(-n4ccnc4)c3Cl)cn1)CC2` [Example 59, (S)-1-(5-((3-chloro-2-(1H-imidazol-1-yl)pyridin-4-yl)thio)pyrazin-2-yl)-4′H,6′H-spiro[piperidine-4,5′-pyrrolo[1,2-b]pyrazol]-4′-amine] gave an IC50 [1] of no more than 50 nM and an IC50 [2, 3] of less than 100 nM.
With `N[C@@H]1c2ccnn2CC12CCN(c1cnc(Sc3ccn4cnnc4c3Cl)cn1)CC2` [Example 51, (S)-1-(5-((8-chloro-[1,2,4]triazolo[4,3-a]pyridin-7-yl)thio)pyrazin-2-yl)-4′H,6′H-spiro[piperidine-4,5′-pyrrolo[1,2-b]pyrazol]-4′-amine] the IC50 [1] was no more than 50 nM and the IC50 [2, 3] was 100 to 500 nM.
Compound `CN(C)C(=O)c1cnn(-c2nccc(Sc3cnc(N4CCC5(CC4)Cn4nccc4[C@H]5N)cn3)c2Cl)c1` [Example 69, (S)-1-(4-((5-(4′-amino-4′H,6′H-spiro[piperidine-4,5′-pyrrolo[1,2-b]pyrazol]-1-yl)pyrazin-2-yl)thio)-3-chloropyridin-2-yl)-N,N-dimethyl-1H-pyrazole-4-carboxamide] has an IC50 [1] of no more than 50 nM and an IC50 [2, 3] of less than 100 nM.
Compound `Cc1nc(N2CCC3(CC2)Cn2nccc2[C@H]3N)cc(=O)n1-c1cccc(Cl)c1Cl` [Example 77, (S)-6-(4′-amino-4′H,6′H-spiro[piperidine-4,5′-pyrrolo[1,2-b]pyrazol]-1-yl)-3-(2,3-dichlorophenyl)-2-methylpyrimidin-4(3H)-one] has an IC50 [1] of no more than 50 nM and an IC50 [2, 3] of 100 to 500 nM.
In the case of `Nc1nc(N2CCC3(CC2)Cn2nc4c(c2[C@H]3N)CCC4)cnc1Sc1ccnc(N)c1Cl` [Example 20, (S)-1′-(6-amino-5-((2-amino-3-chloropyridin-4-yl)thio)pyrazin-2-yl)-1,2,3,8-tetrahydro-6H-spiro[cyclopenta[d]pyrrolo[1,2-b]pyrazole-7,4′-piperidin]-8-amine], the IC50 [1] is reported as no more than 50 nM and the IC50 [2, 3] is reported as less than 100 nM.
Work on `Nc1nc(N2CCC3(CC2)Cn2nccc2[C@H]3N)cnc1Sc1ccnc(-n2cccn2)c1Cl` [Example 60, (S)-1-(6-amino-5-((3-chloro-2-(1H-pyrazol-1-yl)pyridin-4-yl)thio)pyrazin-2-yl)-4′H,6′H-spiro[piperidine-4,5′-pyrrolo[1,2-b]pyrazol]-4′-amine] yielded an IC50 [1] of no more than 50 nM and an IC50 [2, 3] of less than 100 nM.
`N[C@@H]1c2ccnn2CC12CCN(c1cnc3nc(Sc4ccnc(-n5cccn5)c4Cl)ccc3n1)CC2` [Example 72, (S)-1-(6-((3-chloro-2-(1H-pyrazol-1-yl)pyridin-4-yl)thio)pyrido[2,3-b]pyrazin-2-yl)-4′H,6′H-spiro[piperidine-4,5′-pyrrolo[1,2-b]pyrazol]-4′-amine] showed an IC50 [1] of no more than 50 nM and an IC50 [2, 3] of 100 to 500 nM.
`Cc1nc(N2CCC3(CC2)Cn2cccc2[C@H]3N)cc(=O)n1-c1cccc(Cl)c1Cl` [Example 86, (S)-6-(1′-amino-1′H,3′H-spiro[piperidine-4,2′-pyrrolizin]-1-yl)-3-(2,3-dichlorophenyl)-2-methylpyrimidin-4(3H)-one] gave an IC50 [1] of no more than 50 nM and an IC50 ([2]; KYSE-520, 2 h) of 100 to 500 nM.
`COc1cc2n(n1)CC1(CCN(c3cnc(Sc4ccnc(N)c4Cl)cn3)CC1)[C@@H]2N` [Example 12, (S)-1-(5-((2-amino-3-chloropyridin-4-yl)thio)pyrazin-2-yl)-2′-methoxy-4′H,6′H-spiro[piperidine-4,5′-pyrrolo[1,2-b]pyrazol]-4′-amine] showed an IC50 [1] of no more than 50 nM and an IC50 [2, 3] of 100 to 500 nM.
In the case of `Nc1nccc(Sc2ncc(N3CCC4(CC3)Cn3nccc3[C@H]4N)n3cncc23)c1Cl` [Example 30, (S)-1-(8-((2-amino-3-chloropyridin-4-yl)thio)imidazo[1,5-a]pyrazin-5-yl)-4′H,6′H-spiro[piperidine-4,5′-pyrrolo[1,2-b]pyrazol]-4′-amine], the IC50 [1] is reported as greater than 300 nM and the IC50 [2, 3] is reported as greater than 500 nM.
`N[C@@H]1c2ccnn2CC12CCN(c1cnc(Sc3ccnc(-n4cc(F)cn4)c3Cl)cn1)CC2` [Example 61, (S)-1-(5-((3-chloro-2-(4-fluoro-1H-pyrazol-1-yl)pyridin-4-yl)thio)pyrazin-2-yl)-4′H,6′H-spiro[piperidine-4,5′-pyrrolo[1,2-b]pyrazol]-4′-amine] was tested, and the IC50 [1] was no more than 50 nM and the IC50 [2, 3] was less than 100 nM.
In the case of `Nc1nc(N2CCC3(CC2)Cn2nccc2[C@H]3N)cnc1Sc1ccnc(-n2ccnc2)c1Cl` [Example 63, (S)-1-(6-amino-5-((3-chloro-2-(1H-imidazol-1-yl)pyridin-4-yl)thio)pyrazin-2-yl)-4′H,6′H-spiro[piperidine-4,5′-pyrrolo[1,2-b]pyrazol]-4′-amine], the IC50 [1] is reported as no more than 50 nM and the IC50 [2, 3] is reported as less than 100 nM.
